# Data published in publication PMC4467917 (ACS infectious diseases, 2015).
# Read-outs that look alike come from different tables or passages of the source.
# Legend:
# xanthine oxidase [1] = biological target: T1, xanthine oxidase (Mus musculus, UniProt Q00519); experiment: Effect of allopurinol predosing on PZA and POA exposure in CD-1 mice; details: allopurinol pretreatment either 4 doses of 20 mg/kg or 1 dose of 40 mg/kg
# [2] = Plasma pharmacokinetics of oral PZA or POA in naïve guinea pigs
# [3] = format: in vivo, human; details: for CmaxPZA: Korean subjects, PZA 22–30 mg/kg
# in vivo [4] = details: female, CD-1, mouse, plasma, po, 150 mg/kg
# [5] = female, rabbit, in vivo, po, 250 mg/kg
# xanthine oxidase [6] = experiment: Effect of allopurinol predosing on PZA and POA exposure in NZW rabbits; format: in vivo, rabbit; details: for AUC: female, New Zealand white, rabbit, plasma, 40 mg/kg
# [7] = C3HeB/FeJ, mouse, in vivo
# xanthine oxidase [8] = biological target: T1, xanthine oxidase; details: female, CD-1, mouse, in vivo, po, 40 mg/kg
# in vivo [9] = details: BALB/c, mouse, po, 150 mg/kg
# [10] = Oral pharmacokinetics of POA in preclinical species; format: in vivo; details: single oral POA dose; mice, guinea pigs and rabbits
# [11] = not given; remark: listed apart in the source
# [12] = Solubility of POA in aqueous media; format: physicochemical
# [13] = test system: acute intravenous infection; details: administered at 2 to 5% in food; cited from earlier work
# [14] = Plasma pharmacokinetics of oral PZA or POA in naïve New Zealand white rabbits; format: in vivo, rabbit
# [15] = not given; remark: listed apart in the source
# [16] = test system: M. tuberculosis H37Rv or H37Ra; experiment: Susceptibility on solid media; format: cell-based, Mycobacterium tuberculosis
# [17] = test system: M. tuberculosis strains H37Rv and H37Ra; experiment: In vitro growth inhibitory assay in liquid medium; format: cell-based, Mycobacterium tuberculosis
# in vivo [18] = details: female, C3HeB/FeJ, mouse, plasma, po, 150 mg/kg
# [19] = not given; remark: listed apart in the source
# in vivo [20] = details: female, New Zealand white (NZW), rabbit, po, 250 mg/kg
# in vivo [21] = details: C3HeB/FeJ, mouse, po
# [22] = cited from earlier work
# [23] = Plasma pharmacokinetics of PZA and POA metabolite in uninfected marmosets
# [24] = female, Hartley, guinea pig, in vivo, po, 300 mg/kg
# [25] = both, human, plasma, oral, 1500 mg
# [26] = over a 24 h period, 14 TB patients, 1500 mg PZA, from PK model
# [27] = female, BALB/c, mouse, in vivo, po, 150 mg/kg
# [28] = both, human, plasma, po, 1500 mg
# [29] = female, New Zealand white, rabbit, plasma, po
# T1 sequence (Q00519 whole entry): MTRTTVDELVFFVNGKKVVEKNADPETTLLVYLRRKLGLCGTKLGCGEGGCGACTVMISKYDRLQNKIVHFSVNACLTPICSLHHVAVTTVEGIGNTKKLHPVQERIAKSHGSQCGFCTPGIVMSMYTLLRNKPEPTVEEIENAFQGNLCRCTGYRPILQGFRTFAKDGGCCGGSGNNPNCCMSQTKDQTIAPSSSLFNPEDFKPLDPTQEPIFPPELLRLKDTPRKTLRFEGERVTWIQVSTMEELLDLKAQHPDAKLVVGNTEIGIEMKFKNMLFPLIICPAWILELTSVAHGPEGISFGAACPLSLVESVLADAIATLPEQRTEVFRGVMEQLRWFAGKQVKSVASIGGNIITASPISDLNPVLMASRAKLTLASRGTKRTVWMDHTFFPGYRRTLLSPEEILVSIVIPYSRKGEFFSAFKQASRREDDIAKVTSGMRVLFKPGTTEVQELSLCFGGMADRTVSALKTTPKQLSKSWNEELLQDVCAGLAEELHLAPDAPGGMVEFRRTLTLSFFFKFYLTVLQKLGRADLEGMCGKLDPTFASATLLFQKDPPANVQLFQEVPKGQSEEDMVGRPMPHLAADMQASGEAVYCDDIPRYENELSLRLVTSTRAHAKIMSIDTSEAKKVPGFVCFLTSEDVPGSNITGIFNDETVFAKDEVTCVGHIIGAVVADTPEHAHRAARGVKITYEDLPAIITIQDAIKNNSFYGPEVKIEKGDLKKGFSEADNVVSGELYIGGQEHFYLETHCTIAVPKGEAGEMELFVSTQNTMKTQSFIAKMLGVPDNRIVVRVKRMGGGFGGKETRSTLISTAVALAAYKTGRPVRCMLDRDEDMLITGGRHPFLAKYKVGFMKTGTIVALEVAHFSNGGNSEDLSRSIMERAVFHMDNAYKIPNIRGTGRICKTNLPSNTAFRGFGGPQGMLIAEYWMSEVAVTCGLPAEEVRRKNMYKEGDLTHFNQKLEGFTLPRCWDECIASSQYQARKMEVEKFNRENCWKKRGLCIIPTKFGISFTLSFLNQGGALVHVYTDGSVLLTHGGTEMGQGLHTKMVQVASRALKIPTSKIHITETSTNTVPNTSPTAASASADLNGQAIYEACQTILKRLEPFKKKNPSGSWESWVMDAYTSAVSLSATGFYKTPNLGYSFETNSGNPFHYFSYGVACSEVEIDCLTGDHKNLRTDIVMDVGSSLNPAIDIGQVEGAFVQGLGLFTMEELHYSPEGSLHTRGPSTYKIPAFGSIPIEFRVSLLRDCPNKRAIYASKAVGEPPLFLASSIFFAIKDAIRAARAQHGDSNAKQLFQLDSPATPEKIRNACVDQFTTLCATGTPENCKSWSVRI
structure (smiles),measurement,setting,value
"O=C(O)c1cnc(O)cn1 [5-hydroxy-POA, 5-hydroxypyrazinoate]",change in 5-hydroxy-POA exposure,xanthine oxidase [1],concomitant decrease
"O=C(O)c1cnccn1 [POA, pyrazinoic acid]",AUC,[2]; [24],449 µg·h/mL
same,CmaxPOA,"[2]; naïve guinea pigs, single oral POA dose 300 mg/kg, average (SD)",165 (74) µg/mL
same,POA/PZA exposure ratio in plasma,[3]; active TB patients,approximately 0.2
same,clearance,[3]; [25],31.7 mL/min
same,POA/PZA exposure ratio (range),[3]; [26],17–32%
same,median POA/PZA exposure ratio,[3]; [26],19%
same,AUC,in vivo [4],136 µg·h/mL
same,AUCPOA met (POA metabolite derived from dosing of PZA),[5]; New Zealand white (NZW),504 (139) µg·h/ml
same,CmaxPOA met,[5]; New Zealand white (NZW),111 (27) µg/mL
same,AUCPOA/AUCPZA ratio,[5]; New Zealand white,1.70 (0.21)
same,effect of allopurinol predosing on POA exposure,"xanthine oxidase [6]; rabbits, allopurinol 3 doses of 40 mg/kg followed by oral PZA 150 mg/kg",no effect
same,"CLm/Fm, oral clearance of the POA metabolite",[7]; po,2.18 (6) L/h/kg
same,"Vm/Fm, oral volume of distribution of the POA metabolite",[7]; po,0.47 (13) L/kg
same,AUCPOA met (POA metabolite derived from dosing of PZA),"[7]; po, 150 mg/kg",76 (16) µg·h/ml
same,AUCPOA/AUCPZA ratio,"[7]; po, 150 mg/kg",0.18 (0.02)
same,CmaxPOA met,"[7]; po, 150 mg/kg",16(5) µg/mL
same,AUCPOA met (POA metabolite derived from dosing of PZA),[27],131 (13) µg·h/ml
same,AUCPOA/AUCPZA ratio,[27],0.38 (0.02)
same,CmaxPOA met,[27],43 (10) µg/mL
same,CmaxPOA,"naïve BalbC mice, single oral POA dose 150 mg/kg, average (SD)",155(33) µg/mL
same,fold increase in POA exposure,xanthine oxidase [8],12 fold
same,AUC,in vivo [9]; female,287 µg·h/mL
same,oral bioavailability,[10],orally bioavailable
same,concentrations at 24 h post PZA dosing,[11],below the limit of quantification
same,tissue-to-plasma ratios,"[11]; female, New Zealand White, rabbit, in vivo",0.2 and 0.5
same,solubility in aqueous media,[12],poor solubility
same,efficacy in a mouse model of acute intravenous infection,[13],lack of POA efficacy
same,AUC,"[14]; female, New Zealand white, rabbit, plasma, po, 200 mg/kg",2010 µg·h/mL
same,CmaxPOA,"[14]; naïve rabbits, single oral POA dose 200 mg/kg, average (SD)",244 (51) µg/mL
same,CmaxPOA,"[15]; naïve CD1 mice, single oral POA dose 150 mg/kg, average (SD)",102 (32) µg/mL
same,potency relative to PZA on agar plates,[16],twice as potent as PZA
same,potency relative to PZA in liquid medium,"[17]; pH 5.5, 5.8 and 6.5, H37Ra and H37Rv",consistently more potent than PZA
same,fold more potent than PZA in vitro,[17]; various pH and inocula,2- to 4 fold
"NC(=O)c1cnccn1 [PZA, pyrazinamide]",AUC,[2]; [24],342 µg·h/mL
same,CL/F,[2]; [24],12.5 mL/min/kg
same,Vd/F,[2]; [24],2.54 L/kg
same,k el,[2]; [24],8.06e-05 s⁻¹
same,"ka, absorption rate constant","[2]; guinea pigs, PK model typical value (standard error NA)",7.7 (NA) h^−1
same,human-equivalent PZA dose,"[2]; naïve guinea pigs, calculated to achieve a target AUC of 450 mg·h/L",400 mg/kg
same,CmaxPZA,"[2]; naïve guinea pigs, single oral PZA dose 300 mg/kg, average (SD)",179 (100) µg/mL
same,CmaxPZA,[3]; single dose,43 µg/mL
same,CmaxPZA,[3]; steady state,59 µg/mL
same,"ka, absorption rate constant","[3]; TB patients, PK model typical value (standard error)",0.72 (18) h^−1
same,clearance,[3]; [25],28.3 mL/min
same,k el,[3]; [25],1.58e-05 s⁻¹
same,AUC,"[3]; both, human, plasma, po",617 to 738 µg·h/mL
same,CL/F,[3]; [28],0.467 mL/min/kg
same,Vd/F,[3]; [28],0.49 L/kg
same,AUC,in vivo [4],210 µg·h/mL
same,CL/F,in vivo [4],12.5 mL/min/kg
same,Vd/F,in vivo [4],1.28 L/kg
same,k el,in vivo [4],0.000161 s⁻¹
same,AUC,in vivo [18],580 µg·h/mL
same,CL/F,in vivo [18],10.3 mL/min/kg
same,Vd/F,in vivo [18],1.02 L/kg
same,k el,in vivo [18],0.000169 s⁻¹
same,"ka, absorption rate constant","[19]; C3HeB/FeJ mice, PK model typical value (standard error)",4.47 (21) h^−1
same,CmaxPZA,"[19]; naïve C3HeB/FeJ mice, single oral PZA dose 150 mg/kg, average (SD)",190 (24) µg/mL
same,CmaxPZA,[5]; New Zealand white (NZW),90 (35) µg/mL
same,AUC,in vivo [20],296 µg·h/mL
same,human-equivalent PZA dose,[7],160 mg/kg
same,"ka, absorption rate constant",[7],220 (1) h^−1
same,CmaxPZA,"[7]; po, 150 mg/kg",89 (20) µg/mL
same,"ka, absorption rate constant","BALB/c mice, PK model typical value (standard error)",18 (8) h^−1
same,human-equivalent PZA dose,"BALB/c, mouse, in vivo",175 mg/kg
same,CmaxPZA,[27],163 (38) µg/mL
same,CL/F,in vivo [21],6.33 mL/min/kg
same,Vd/F,in vivo [21],1.85 L/kg
same,AUC,in vivo [21]; 150 mg/kg,425 µg·h/mL
same,AUC,in vivo [9],388 µg·h/mL
same,CL/F,in vivo [9]; female,7.83 mL/min/kg
same,Vd/F,in vivo [9]; female,0.78 L/kg
same,k el,in vivo [9]; female,0.000167 s⁻¹
same,concentrations at 24 h post PZA dosing,[11],below the limit of quantification
same,“normal” peak plasma concentrations,[22]; 1 to 2 h postdose,20 to 60 µg/mL
same,mean AUC,[22]; TB patients receiving a standard daily dose of 1500 mg PZA,380 to 625 µg·h/mL
same,CL/F,[14]; [29],12.5 mL/min/kg
same,Vd/F,[14]; [29],3.72 L/kg
same,k el,[14]; [29],5.56e-05 s⁻¹
same,AUC,"[14]; female, New Zealand white, rabbit, plasma, po, 300 mg/kg",457 µg·h/mL
same,human-equivalent PZA dose,"[14]; naïve rabbits, calculated to achieve a target AUC of 450 mg·h/L",300 mg/kg
same,CmaxPZA,"[14]; naïve rabbits, single oral PZA dose 300 mg/kg, average (SD)",82 (17) µg/mL
same,"ka, absorption rate constant","[14]; rabbits, PK model typical value (standard error)",4.8 (2) h^−1
same,AUC,"[23]; marmoset (Callithrix jacchus), in vivo, po, 125 mg/kg",743 µg·h/mL
same,"ka, absorption rate constant","[23]; marmosets, PK model typical value (standard error)",0.81 (7) h^−1
same,CL/F,"[23]; monkey, in vivo, po, 125 mg/kg",3.83 mL/min/kg
same,Vd/F,"[23]; monkey, in vivo, po, 125 mg/kg",1.1 L/kg
same,k el,"[23]; monkey, in vivo, po, 125 mg/kg",5.83e-05 s⁻¹
same,human-equivalent PZA dose,"[23]; naïve marmosets, calculated to achieve a target AUC of 450 mg·h/L",100 mg/kg
same,CmaxPZA,"[23]; naïve marmosets, single oral PZA dose 125 mg/kg, average (SD)",80 (47) µg/mL
same,"ka, absorption rate constant","[15]; CD1 mice, PK model typical value (standard error)",15 (11) h^−1
same,CmaxPZA,"[15]; naïve CD1 mice, single oral PZA dose 150 mg/kg, average (SD)",109 (11) µg/mL
same,susceptibility of H37Rv compared with H37Ra,[17]; across the pH range,less susceptible to PZA than H37Ra
Oc1ncnc2[nH]ncc12 [allopurinol],AUC,xanthine oxidase [6],8 µg·h/mL
O=c1[nH]c(=O)c2c[nH]nc2[nH]1 [oxypurinol],AUC,xanthine oxidase [6],124 µg·h/mL
